From the supplement of paper PMC11208160

Assay: recombinant UMI read abundance after kanamycin selection (control-corrected) (log10(CPM+1)); higher = more efficient recombination; extreme values may be limits of the assay; sequences stand for … in AGTGCAGAGAAAATCGGCCAGTTTTCTCTGCCTGCAGTCCGCATGCCGTGGGACCCCTTGGGTTCTAACCTGTTGCCTAGATTTATGCAGCGGACTGCCTTTCTCCCAAAGTGATAAACCGG…AGGTTGGTTTCACT; site = the 11-nt donor
Outline: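 Pooled Escherichia coli screen of donor and donor-binding-loop pairs for the IS621 bridge recombinase. Each pair sits with a 12-nt UMI on a plasmid carrying a promoterless kanamycin gene. The library was co-electroporated with a target plasmid encoding a fixed target and T7-inducible recombinase, then plated with IPTG (0.07 mM) plus kanamycin, or unselected, each in two replicates. Recombinant UMIs were PCR-amplified across the donor–target junction and sequenced. Counts became CPM, averaged over replicates, scaled by control-derived factors and reported as log10(CPM+1).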
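Further: IS621 bridge recombinase in Escherichia coli cells against a fixed T5 target plasmid.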

| Sequence | recombinant UMI read abundance (log10) |
| --- | --- |
| AGGTTCCCATGGACCGGTTTTCCCGGTAATCCGTATTTGTG (site TGGTTCCCTCA) | 0.00656 |
| AGTAAGGCATGGACCGGTTTTCCCGGTAATCCGTATTTGAT (site AGTAAGGCTAT) | 2.27 |
| AGTAATTCATGGACCGGTTTTCCCGGTAATCCGTATTTGAC (site AGTAATTCTGT) | 0.17 |
| AGTACACCATGGACCGGTTTTCCCGGTAATCCGTATTTGAG (site AGTACACCTCT) | 0.0245 |
| AGTAGCCCATGGACCGGTTTTCCCGGTAATCCGTATTTGGA (site AGTAGCCCTTC) | 0.01 |
| AGTCCATCATGGACCGGTTTTCCCGGTAATCCGTATTTGGG (site AGTCCATCTCC) | 0.00252 |
| AGTCCCACATGGACCGGTTTTCCCGGTAATCCGTATTTGGA (site AGTCCCACTTC) | 0.296 |
| AGTCCTTCATGGACCGGTTTTCCCGGTAATCCGTATTTGGG (site AGTCCTTCTCC) | 0.0141 |
| AGTCTAGCATGGACCGGTTTTCCCGGTAATCCGTATTTGTT (site AGACTAGCTAA) | 0.0182 |
| AGTCTAGCATGGACCGGTTTTCCCGGTAATCCGTATTTGTT (site AGCCTAGCTAA) | 0.0159 |
| AGTCTAGCATGGACCGGTTTTCCCGGTAATCCGTATTTGTT (site AGGCTAGCTAA) | 0.0213 |
| AGTCTAGCATGGACCGGTTTTCCCGGTAATCCGTATTTGTT (site AGTCTAGCTAA) | 0.0147 |
| AGTCTGACATGGACCGGTTTTCCCGGTAATCCGTATTTGGA (site AGTCTGACTTC) | 0.729 |
| AGTCTTTCATGGACCGGTTTTCCCGGTAATCCGTATTTGAC (site AGACTTTCTGT) | 0 |
| AGTCTTTCATGGACCGGTTTTCCCGGTAATCCGTATTTGAC (site AGCCTTTCTGT) | 0.743 |
| AGTCTTTCATGGACCGGTTTTCCCGGTAATCCGTATTTGAC (site AGGCTTTCTGT) | 0 |
| AGTCTTTCATGGACCGGTTTTCCCGGTAATCCGTATTTGAC (site AGTCTTTCTGT) | 0 |
| AGTGACTCATGGACCGGTTTTCCCGGTAATCCGTATTTGCG (site AGTGACTCTCG) | 2.88 |
| AGTGAGACATGGACCGGTTTTCCCGGTAATCCGTATTTGGG (site AGTGAGACTCC) | 0.00984 |
| AGTGATCCATGGACCGGTTTTCCCGGTAATCCGTATTTGGT (site AGTGATCCTAC) | 0.0964 |
| AGTGCGACATGGACCGGTTTTCCCGGTAATCCGTATTTGCA (site AGTGCGACTTG) | 1.38 |
| AGTGGAACATGGACCGGTTTTCCCGGTAATCCGTATTTGTC (site AGTGGAACTGA) | 2.3 |
| AGTGGCCCATGGACCGGTTTTCCCGGTAATCCGTATTTGCG (site AGTGGCCCTCG) | 0.0207 |
| AGTGGCGCATGGACCGGTTTTCCCGGTAATCCGTATTTGTC (site AGTGGCGCTGA) | 2.86 |
| AGTTACGCATGGACCGGTTTTCCCGGTAATCCGTATTTGAT (site AGTTACGCTAT) | 1.72 |
| AGTTCCCCATGGACCGGTTTTCCCGGTAATCCGTATTTGTA (site AGTTCCCCTTA) | 0.124 |

| Sequence | recombinant UMI read abundance (log10) |
| --- | --- |
| AGTTCCCCATGGACCGGTTTTCCCGGTAATCCGTATTTGTA (site CGTTCCCCTTA) | 0.025 |
| AGTTCCCCATGGACCGGTTTTCCCGGTAATCCGTATTTGTA (site GGTTCCCCTTA) | 0.013 |
| AGTTCCCCATGGACCGGTTTTCCCGGTAATCCGTATTTGTA (site TGTTCCCCTTA) | 0.0167 |
| ATAAGAACATGGACCGGTTTTCCCGGTAATCCGTATTTGGG (site ATAAGAACTCC) | 0.884 |
| ATAAGATCATGGACCGGTTTTCCCGGTAATCCGTATTTGAA (site ATAAGATCTTT) | 2.8 |
| ATAAGGACATGGACCGGTTTTCCCGGTAATCCGTATTTGAC (site ATAAGGACTGT) | 2.34 |
| ATAAGGACATGGACCGGTTTTCCCGGTAATCCGTATTTGAC (site ATAAGGCCTGT) | 0 |
| ATAAGGACATGGACCGGTTTTCCCGGTAATCCGTATTTGAC (site ATAAGGGCTGT) | 2.31 |
| ATAAGGACATGGACCGGTTTTCCCGGTAATCCGTATTTGAC (site ATAAGGTCTGT) | 1.93 |
| ATAAGGCCATGGACCGGTTTTCCCGGTAATCCGTATTTGGC (site ATAAGGCCTGA) | 0 |
| ATAAGGCCATGGACCGGTTTTCCCGGTAATCCGTATTTGGC (site ATAAGGCCTGC) | 2.31 |
| ATAAGGCCATGGACCGGTTTTCCCGGTAATCCGTATTTGGC (site ATAAGGCCTGG) | 0 |
| ATAAGGCCATGGACCGGTTTTCCCGGTAATCCGTATTTGGC (site ATAAGGCCTGT) | 0.68 |
| ATACAAGCATGGACCGGTTTTCCCGGTAATCCGTATTTGAC (site ATACAAGCTGT) | 2.38 |
| ATACCACCATGGACCGGTTTTCCCGGTAATCCGTATTTGGT (site ATACCACCTAC) | 0.0125 |
| ATACCGTCATGGACCGGTTTTCCCGGTAATCCGTATTTGGG (site ATACCGTCTCC) | 0.0133 |
| ATACTATCATGGACCGGTTTTCCCGGTAATCCGTATTTGTT (site ATACTATCTAA) | 2.54 |
| ATAGCATCATGGACCGGTTTTCCCGGTAATCCGTATTTGCA (site ACAGTATCTTG) | 1.65 |
| ATAGCATCATGGACCGGTTTTCCCGGTAATCCGTATTTGCA (site ATAGCATCTTG) | 2.9 |
| ATAGGTGCATGGACCGGTTTTCCCGGTAATCCGTATTTGGC (site ATAGGTGCTGC) | 3.17 |
| ATAGTATCATGGACCGGTTTTCCCGGTAATCCGTATTTGTA (site ACAGTATCTTG) | 0.029 |
| ATAGTATCATGGACCGGTTTTCCCGGTAATCCGTATTTGTA (site ATAGTATCTTA) | 3.14 |
| ATAGTCGCATGGACCGGTTTTCCCGGTAATCCGTATTTGCG (site ATAGTCGCTCG) | 1.37 |
| ATAGTCGCATGGACCGGTTTTCCCGGTAATCCGTATTTGCG (site CTAGTCGCTCG) | 0.303 |
| ATAGTCGCATGGACCGGTTTTCCCGGTAATCCGTATTTGCG (site GTAGTCGCTCG) | 0.0129 |
| ATAGTCGCATGGACCGGTTTTCCCGGTAATCCGTATTTGCG (site TTAGTCGCTCG) | 0.00819 |
